Measurements from patent publication US7915262B2, “Combination preparations comprising SLV308 and a dopamine agonist” (Solvay Pharmaceuticals B.V., priority 2006, dated 2011).
Counter-ions that a name gives are not always drawn.

Key:
[1] = system: MPTP-lesioned common marmosets; assay: locomotor activity in MPTP-lesioned common marmosets; type: in vivo, Callithrix jacchus; details: for hyperactivity (3 times normal activity in naive marmosets): alone or combined
Protocol: All experimental work was carried out in accordance with the Animals (Scientific Procedures Act) 1986, project license nr PPL 70/4986. Administration of MPTP: […] Research Biochemical International, UK) was dissolved in 0.9% sterile saline solution and administered by subcutaneous (sc) injection (Pearce, et al., De Novo Administration of Ropinirole and Bromocriptine Induces Less Dyskinesia than L-DOPA in the MPTP-treated Common Marmoset, Mov Dis, Mar, 13(2), 234-41, (1998)). To induce the full lesion, MPTP (2.0 mg/kg, sc) was administered once daily for 5 consecutive days. During MPTP-treatment and for the following six to eight weeks, animals were hand fed on a marmoset jelly diet until they had recovered sufficiently to feed themselves and their body weights had stabilised. All animals were determined responsive to L-DOPA administration prior to use. Testing commenced only when animals had recovered from the acute effects of MPTP treatment. In this study this was 70 days after commencement for MPTP treatment. Drugs: […] Doses are expressed as mg/kg free base. L-DOPA methyl ester (Sigma, UK) was dissolved in 10% sucrose in given in a volume of 2 ml/kg and administered by oral gavage. Carbidopa (Merck Sharp and Dohme, UK) was suspended in 10% sucrose in given in a volume of 2 ml/kg and administered directly into the mouth of the animal. Domperidone (Sigma, UK) was suspended in 10% sucrose in given in a volume of 2 ml/kg and administered directly into the mouth of the animal. […] Doses of L-DOPA were chosen to reflect a moderate and high dose of L-DOPA (7.5 and 12.5 mg/kg, po respectively). Procedure: […] A modified latin square design was employed with one week wash-out periods between treatments. Animals were assessed for locomotor activity and disability as described below. Assessment of locomotor activity: […] Each cage was equipped with 8 horizontally orientated infrared photocell emitters and their corresponding detectors arranged so as to permit maximum assessment of movement. […] Analysis and Statistics: […]

[2] = system: MPTP-lesioned common marmosets; assay: motor disability rating in MPTP-treated common marmosets; type: in vivo, Callithrix jacchus
Protocol: All experimental work was carried out in accordance with the Animals (Scientific Procedures Act) 1986, project license nr PPL 70/4986. Administration of MPTP: […] Research Biochemical International, UK) was dissolved in 0.9% sterile saline solution and administered by subcutaneous (sc) injection (Pearce, et al., De Novo Administration of Ropinirole and Bromocriptine Induces Less Dyskinesia than L-DOPA in the MPTP-treated Common Marmoset, Mov Dis, Mar, 13(2), 234-41, (1998)). To induce the full lesion, MPTP (2.0 mg/kg, sc) was administered once daily for 5 consecutive days. During MPTP-treatment and for the following six to eight weeks, animals were hand fed on a marmoset jelly diet until they had recovered sufficiently to feed themselves and their body weights had stabilised. All animals were determined responsive to L-DOPA administration prior to use. Testing commenced only when animals had recovered from the acute effects of MPTP treatment. In this study this was 70 days after commencement for MPTP treatment. Drugs: […] Doses are expressed as mg/kg free base. L-DOPA methyl ester (Sigma, UK) was dissolved in 10% sucrose in given in a volume of 2 ml/kg and administered by oral gavage. Carbidopa (Merck Sharp and Dohme, UK) was suspended in 10% sucrose in given in a volume of 2 ml/kg and administered directly into the mouth of the animal. Domperidone (Sigma, UK) was suspended in 10% sucrose in given in a volume of 2 ml/kg and administered directly into the mouth of the animal. […] Doses of L-DOPA were chosen to reflect a moderate and high dose of L-DOPA (7.5 and 12.5 mg/kg, po respectively). Procedure: […] A modified latin square design was employed with one week wash-out periods between treatments. Animals were assessed for locomotor activity and disability as described below. Rating of disability: The animals were monitored through a one-way mirror by experienced observers, blinded to treatment, and rated for the degree of motor dysfunction. […] Analysis and Statistics: […]

[3] = prodrug; WO 2007/023141; cited from earlier work
[4] = target: T1, cloned human 5-HT1A receptors (Homo sapiens, UniProt P08908); details: forskolin induced cAMP accumulation; cited from earlier work
T1 construct: expressed in transfected cells
T1 sequence (P08908 1-422): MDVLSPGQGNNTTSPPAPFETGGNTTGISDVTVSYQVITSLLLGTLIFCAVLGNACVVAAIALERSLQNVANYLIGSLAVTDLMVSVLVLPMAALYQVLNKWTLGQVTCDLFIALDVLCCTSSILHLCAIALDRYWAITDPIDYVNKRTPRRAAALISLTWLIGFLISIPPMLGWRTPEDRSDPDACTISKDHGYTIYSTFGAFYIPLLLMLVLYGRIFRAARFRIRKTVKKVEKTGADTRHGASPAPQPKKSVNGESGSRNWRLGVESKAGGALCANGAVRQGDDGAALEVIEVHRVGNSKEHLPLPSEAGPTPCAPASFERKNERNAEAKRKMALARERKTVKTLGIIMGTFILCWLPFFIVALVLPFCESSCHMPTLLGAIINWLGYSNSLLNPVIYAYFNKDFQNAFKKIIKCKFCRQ

[5] = target: T2, cloned human dopamine D2,L receptors (Homo sapiens, UniProt P14416); details: cited from earlier work
T2 construct: expressed in transfected cells
T2 sequence (P14416 whole entry): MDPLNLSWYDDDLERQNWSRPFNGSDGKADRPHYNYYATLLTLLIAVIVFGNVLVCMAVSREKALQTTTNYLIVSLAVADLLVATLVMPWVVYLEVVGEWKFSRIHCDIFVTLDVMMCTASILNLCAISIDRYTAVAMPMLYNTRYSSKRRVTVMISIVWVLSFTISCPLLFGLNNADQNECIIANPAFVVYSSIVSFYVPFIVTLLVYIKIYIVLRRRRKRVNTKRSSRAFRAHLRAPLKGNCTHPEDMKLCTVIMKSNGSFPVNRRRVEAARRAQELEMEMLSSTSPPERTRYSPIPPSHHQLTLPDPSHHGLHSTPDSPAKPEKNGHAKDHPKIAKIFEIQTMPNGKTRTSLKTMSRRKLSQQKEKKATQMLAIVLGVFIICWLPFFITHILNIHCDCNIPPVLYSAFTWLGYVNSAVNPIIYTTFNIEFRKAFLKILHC

[6] = system: dopamine D2/3 receptor; details: rat striatal slices; cited from earlier work
[7] = system: MPTP-lesioned common marmosets; details: po; previous study; cited from earlier work
[8] = target: T3, dopamine D2 receptor (Rattus norvegicus, UniProt P61169); details: against inhibitory effect of quinpirole on K+-stimulated [3H]dopamine release, rat striatal slices; cited from earlier work
T3 construct: from rat striatal slices; from tissue; host or cells: rat striatal slices
T3 sequence (P61169 whole entry): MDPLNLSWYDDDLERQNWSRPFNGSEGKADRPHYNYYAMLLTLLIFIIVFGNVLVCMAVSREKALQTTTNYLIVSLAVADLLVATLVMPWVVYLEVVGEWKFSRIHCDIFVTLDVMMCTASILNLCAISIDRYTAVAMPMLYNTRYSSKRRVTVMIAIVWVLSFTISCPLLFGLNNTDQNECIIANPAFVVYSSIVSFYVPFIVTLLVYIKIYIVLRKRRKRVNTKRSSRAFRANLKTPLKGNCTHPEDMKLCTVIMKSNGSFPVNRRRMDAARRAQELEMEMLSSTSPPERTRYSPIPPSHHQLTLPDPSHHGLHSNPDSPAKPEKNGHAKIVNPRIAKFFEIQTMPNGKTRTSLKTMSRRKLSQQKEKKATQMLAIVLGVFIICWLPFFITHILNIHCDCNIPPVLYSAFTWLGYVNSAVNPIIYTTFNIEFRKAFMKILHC

[9] = target: T4, human recombinant dopamine D3 receptors (Homo sapiens, UniProt P35462); details: cited from earlier work
T4 construct: expressed in transfected cells
T4 sequence (P35462 whole entry): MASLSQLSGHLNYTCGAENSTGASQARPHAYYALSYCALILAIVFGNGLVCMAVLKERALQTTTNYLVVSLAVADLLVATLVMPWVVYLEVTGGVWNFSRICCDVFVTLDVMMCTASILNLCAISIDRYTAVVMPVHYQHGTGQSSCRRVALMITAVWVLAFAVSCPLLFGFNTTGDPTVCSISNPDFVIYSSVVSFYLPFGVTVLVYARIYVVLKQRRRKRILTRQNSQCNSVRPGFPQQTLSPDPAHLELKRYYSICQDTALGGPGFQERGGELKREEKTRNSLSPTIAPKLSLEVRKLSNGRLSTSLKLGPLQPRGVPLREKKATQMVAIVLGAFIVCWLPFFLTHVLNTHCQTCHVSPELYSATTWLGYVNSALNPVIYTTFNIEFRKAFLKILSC

[10] = SLV308 0.26 mg/kg po, L-DOPA 7.5 and 12.5 mg/kg po
[11] = L-DOPA 7.5 and 12.5 mg/kg po, SLV308 0.26 mg/kg po

N[C@@H](Cc1ccc(O)c(O)c1)C(=O)O [L-DOPA, 3,4-dihydroxyphenylalanine]
duration of locomotor activity ([1]; L-DOPA 7.5 and 12.5 mg/kg po): 150 to 240 min
onset of locomotor activity increase ([1]; L-DOPA 7.5 and 12.5 mg/kg po): immediate increase in locomotor activity
time of peak locomotor activity after administration ([1]; L-DOPA 7.5 and 12.5 mg/kg po): 60 to 90 min
hyperactivity (3 times normal activity in naive marmosets) [1, 10]: produced periods of hyperactivity
duration of reversal of disability ([2]; L-DOPA 7.5 mg/kg po): 150 min
duration of reversal of disability ([2]; L-DOPA 12.5 mg/kg po): 180 min
time of peak reversal of disability after administration ([2]; L-DOPA 7.5 and 12.5 mg/kg po): 90 min
MPTP-induced akinesia and disability [2, 11]: reverse
onset of reversal of disability [2, 11]: immediate reversal of disability
disability score at peak reversal ([2]; L-DOPA 7.5 and 12.5 mg/kg po, maximum score 18): 2.5

C[N+]1([O-])CCN(c2cccc3[nH]c(=O)oc23)CC1 [N-oxide of SLV308]
conversion to SLV308 in vivo [3]: rapidly converted to SLV308

CN1CCN(c2cccc3[nH]c(=O)oc23)CC1 [SLV308, 7-[4-methyl-1-piperazinyl]-2(3H)-benzoxazolone mono hydrochloride]
pEC50 [4]: 6.3
type of agonism at 5-HT1A [4]: full 5-HT1A receptor agonist
pA2 ([5]; D2,L receptor antagonism): 8.4
efficacy on forskolin stimulated cAMP accumulation ([5]; partial agonist): 50%
effect on forskolin stimulated accumulation of cAMP [6]: concentration-dependently attenuated
dose of optimal effect on locomotor activity and disability scores [7]: 0.26 mg/kg
time of peak locomotor activity after treatment ([1]; SLV308 0.26 mg/kg po): 180 min
time to increase of locomotor activity after administration ([1]; SLV308 0.26 mg/kg po): ≤ 30 min
hyperactivity (3 times normal activity in naive marmosets) [1, 10]: hyperactivity was not observed
duration of locomotor activity ([1]; SLV308 0.26 mg/kg po, whole observation period): ≥ 420 min
MPTP-induced akinesia and disability [2, 11]: reverse
onset of reversal of disability [2, 11]: reduced disability scores immediately after administration
median duration of activity (reversal of disability) ([2]; SLV308 0.26 mg/kg po alone): 390 min
total disability scores over the 7 hours after administration ([2]; SLV308 0.26 mg/kg po alone or in combination with L-DOPA 7.5 or 12.5 mg/kg, versus vehicle p<0.001): reduced
disability score at maximum improvement ([2]; SLV308 0.26 mg/kg po, maximum score 18): 3
pA2 [8]: 8.5
pA2 ([9]; antagonism of dopamine induction of [35S]GTPγS binding): 9.0
pEC50 ([9]; induction of [35S]GTPγS binding): 9.2
induction of [35S]GTPγS binding ([9]; partial agonist): 67 % that of dopamine

CCN(CC)C(=O)N[C@H]1C[C@@H]2c3cccc4[nH]cc(c34)C[C@H]2N(C)C1 [terguride, reference compound]
pA2 [8]: 10.3
